In patent US6660263B2, “Oocydin and methods of use for protection of plants from Oomyocyte pathogens” (HMV Corporation, priority 2000, dated 2003):
Values after ≈ are worked out from the molar mass of the structure shown. Where a SMILES comes first, the peptide text is derived from it. Bridges are numbered along the chain shown (N, C = ends). [ ]: non-standard residue; d: D form. The star is where a group is joined. Tetradecanoyl(3R-OH) = CCCCCCCCCCC[C@@H](O)CC(=O)*; Asp(3S-OH) = N[C@H](C(=O)O)[C@H](O)C(=O)O; Thr(4-Cl) = N[C@H](C(=O)O)[C@H](O)CCl; aThr = C[C@H](O)[C@H](N)C(=O)O; dDab = NCC[C@@H](N)C(=O)O; Dab = NCC[C@H](N)C(=O)O; Dhb = C/C=C(\N)C(=O)O

Columns and labels:
Phytophthora parasitica = assay: MIC in PD broth, 24-well plate
Phytophthora cinnamomi = assay: MIC in PD broth, 24-well plate
Rhizoctonia solani = type: cell-based
[1] = tested on: normal human mammary cell line (cc2551 HMEC); assay: Neutral red cytotoxicity assay; type: cell-based; conditions: 3 days of exposure, preliminary studies
Procedure: (§1) Oocydin A was tested also against human cancer cell lines BT-20, MCF 7(American Type Culture Collection, Bethesda, Md., USA) and compared with activity against a normal human mammary human cell line (cc2551 HMEC from Clonetics, San Diego, Calif., USA). These cells were exposed to serial dilutions of oocydin A. After 3 days of exposure, the cells were stained with neutral red and the absorbance measured at 540 nm. For non-adherent cells a modification of the staining protocol of Berent, S. L. et al., (1986) Nucleic Acid Res 14, 8997-9015 was used. The results were recorded as IC50 values.

Geotrichum candidum = type: cell-based
Phytophthora spp. = assay: MIC in PD broth, 24-well plate; type: cell-based; conditions: the most sensitive Oomycetes
Alternaria tomato = type: cell-based
Phytophthora citrophora = assay: MIC in PD broth, 24-well plate; type: cell-based
P. ultimum = assay: Plate bioassay of fractions on PDA; type: cell-based, Pythium ultimum; conditions: contents of the single HPLC peak (retention time 19.7 min) against P. ultimum
Procedure: Bioassays. A simple plate bioassay test was used to detect bioactivity of various fractions in the purification of oocydin. Aliquots (10-20 μl) of sample were placed on a PDA plate, dried by placement under a hood having positive airflow, and then inoculated with 0.5×0.5 cm plugs of agar containing P. ultimum. The agar plugs were placed in each of the quadrants of the plate and then incubated for 36-48 hr at 23 C. Antioomycetous activity was apparent as a zone of growth inhibition.

[2] = tested on: MCF-7 (breast cancer cell line); assay: Neutral red cytotoxicity assay; type: cell-based, human; conditions: 3 days of exposure, preliminary studies
Procedure: as §1

Pythium ultimum = assay: MIC in PD broth, 24-well plate; type: cell-based
Verticillum dahliae = type: cell-based
Aspergillus fumigatus = type: cell-based
Sclerotinia sclerotiorum = type: cell-based

COCC(=O)N(c1c(C)cccc1C)C(C)C(=O)OC (racemic) [Metalaxyl, N-(2,6-dimethylphenyl)-N-(methoxyacetyl)-DL-alanine methyl ester, reference compound]
MIC (Phytophthora parasitica; Phytophthora nicotianae, read-out: Metalaxyl MIC): 0.06 µg/mL (≈ 0.215 µM)
MIC (Phytophthora cinnamomi; Phytophthora cinnamomi, read-out: Metalaxyl MIC): 0.06 µg/mL (≈ 0.215 µM)

CC(=O)OC1CC(=O)O[C@H]2C[C@H](CC/C(Cl)=C\C/C=C\1C)O[C@H]2[C@@H](O)/C=C(\C)CC(=O)O (stereo partly shown) [oocydin A]
activity on PDA plates (Rhizoctonia solani): only slight inhibition of growth
IC50 [1]: 0.6 µg/mL (≈ 1.27 µM)
activity on PDA plates (Geotrichum candidum): inactive
effect on growth (Histoplasma capsulatum): no effect
Minimum inhibitory concentration (MIC) (Phytophthora parasitica; Phytophthora parasitica): circa 0.03 μg ml^−1
Oocydin MIC Test 1 (Phytophthora parasitica; Phytophthora parasitica, Test 1): 0.03 µg/mL
Oocydin MIC Test 2 (Phytophthora parasitica; Phytophthora parasitica, Test 2): 0.05 µg/mL
MIC (Phytophthora spp.): approximately 0.03 μg ml^−1
effect on growth (Candida parapsilosis): no effect
activity in plate tests (Alternaria tomato): no activity
Minimum inhibitory concentration (MIC) (Phytophthora citrophora; P. citrophora): circa 0.03 μg ml^−1
Oocydin MIC Test 1 (Phytophthora citrophora; Phytophthora citrophora, Test 1): 0.03 µg/mL
Oocydin MIC Test 2 (Phytophthora citrophora; Phytophthora citrophora, Test 2): 0.02 µg/mL
bioassay activity (P. ultimum): active
Minimum inhibitory concentration (MIC) (Phytophthora cinnamomi; P. cinnamomi): circa 0.03 μg ml^−1
Oocydin MIC Test 1 (Phytophthora cinnamomi; Phytophthora cinnamomi, Test 1): 0.03 µg/mL
Oocydin MIC Test 2 (Phytophthora cinnamomi; Phytophthora cinnamomi, Test 2): 0.02 µg/mL
IC50 [2]: 0.42 µg/mL (≈ 0.892 µM)
effect on growth (Candida albicans): no effect
effect on growth (Cryptococcus neoformans): no effect
Oocydin MIC Test 1 (Pythium ultimum; Test 1, no visible growth after 48 or 72 hr at 23° C.): 0.11 µg/mL
Oocydin MIC Test 2 (Pythium ultimum; Test 2, no visible growth after 48 or 72 hr at 23° C.): 0.39 µg/mL
activity in plate tests (Verticillum dahliae): no activity
effect on growth (Aspergillus fumigatus): no effect
activity on PDA plates (Sclerotinia sclerotiorum): only slight inhibition of growth

C/C=C1\NC(=O)[C@H]([C@H](C)O)NC(=O)[C@H](CCN)NC(=O)[C@H](CCCCN)NC(=O)[C@H](CC(=O)O)NC(=O)[C@@H](CCN)NC(=O)[C@@H](NC(=O)C[C@H](O)CCCCCCCCCCC)COC(=O)[C@H]([C@H](O)CCl)NC(=O)[C@H]([C@H](O)C(=O)O)NC1=O [pseudomycin B, reference compound] ({Tetradecanoyl(3R-OH)}-S[dDab]DK[Dab][aThr][Dhb][Asp(3S-OH)][Thr(4-Cl)]; ester 1-C; N-terminus assumed)
MIC (Histoplasma capsulatum): < 1.0 µg/mL
MIC (Candida parapsilosis): < 1.0 µg/mL
MIC (Candida albicans): < 1.0 µg/mL
MIC (Cryptococcus neoformans): < 1.0 µg/mL
